Assay results: article PMC6458995, “MAP4K4 Inhibition Promotes Survival of Human Stem Cell-Derived Cardiomyocytes and Reduces Infarct Size In Vivo” (Cell Stem Cell, 2019)

Columns and labels:
[1] = Glutathione (GSH)-trapping; format: in vitro ADME
[2] = test system: Cerep Safety 44 panel; test: Cerep Safety 44 panel (SafetyScreen44); format: binding; settings: except metallothionein 3
[3] = test system: cardiomyocyte apoptosis; test: Cardiomyocyte apoptosis after myocardial infarction (TUNEL staining); format: in vivo, mice; settings: post-injury study
Protocol: Mice were treated subcutaneously with 0.024 mg buprenorphine (average, 1.1 mg kg^-1; […] Animal Health), intubated, and ventilated using a tidal volume of 250 μL and respiratory rate of 150 breaths min^-1 (Hugo-Sachs MiniVent type 845; Harvard Apparatus). After a left thoracotomy in the fourth intercostal space, the pericardium was removed. A 6-0 polypropylene suture was used to […] anterior descending coronary artery (LAD) and tied against a short section of PE-50 polyethylene tubing for 45 min; blood flow was re-established by removing the tubing, releasing the ligature. Ischemia and reperfusion were substantiated by reversible distal blanching and ST segment elevation. Mice were allowed to recover in a heated chamber for 20 min, then moved to a normal holding cage with supplemental heat if necessary. […] Nuclei were stained with 2.5 μg ml^-1 diamidinophenolindole (DAPI). Alternatively, fixed frozen sections were used. Cleaved DNA (apoptotic cells) was visualized using TUNEL ApopTag Kits (Millipore). Cardiomyocytes were identified using MF20 antibody to sarcomeric myosin heavy chains (MyHC; R&D Systems) (fluorescein-conjugated: Figure S3C; unconjugated, plus Alexa Fluor-555 anti-mouse IgG: Figure […]; conjugated and unconjugated mouse IgG2b were the respective controls). Sections were counterstained with DAPI and treated with Prolong Gold Antifade Mountant (Life Technologies). […]

[4] = target: T1, hERG (Homo sapiens, UniProt Q12809); test: Ion channel safety screening (Patchliner whole-cell patch clamp); format: cell-based
T1 construct: stably expressing full length hERG; host or cells: Chinese Hamster Ovary cell line
T1 sequence (Q12809 whole entry): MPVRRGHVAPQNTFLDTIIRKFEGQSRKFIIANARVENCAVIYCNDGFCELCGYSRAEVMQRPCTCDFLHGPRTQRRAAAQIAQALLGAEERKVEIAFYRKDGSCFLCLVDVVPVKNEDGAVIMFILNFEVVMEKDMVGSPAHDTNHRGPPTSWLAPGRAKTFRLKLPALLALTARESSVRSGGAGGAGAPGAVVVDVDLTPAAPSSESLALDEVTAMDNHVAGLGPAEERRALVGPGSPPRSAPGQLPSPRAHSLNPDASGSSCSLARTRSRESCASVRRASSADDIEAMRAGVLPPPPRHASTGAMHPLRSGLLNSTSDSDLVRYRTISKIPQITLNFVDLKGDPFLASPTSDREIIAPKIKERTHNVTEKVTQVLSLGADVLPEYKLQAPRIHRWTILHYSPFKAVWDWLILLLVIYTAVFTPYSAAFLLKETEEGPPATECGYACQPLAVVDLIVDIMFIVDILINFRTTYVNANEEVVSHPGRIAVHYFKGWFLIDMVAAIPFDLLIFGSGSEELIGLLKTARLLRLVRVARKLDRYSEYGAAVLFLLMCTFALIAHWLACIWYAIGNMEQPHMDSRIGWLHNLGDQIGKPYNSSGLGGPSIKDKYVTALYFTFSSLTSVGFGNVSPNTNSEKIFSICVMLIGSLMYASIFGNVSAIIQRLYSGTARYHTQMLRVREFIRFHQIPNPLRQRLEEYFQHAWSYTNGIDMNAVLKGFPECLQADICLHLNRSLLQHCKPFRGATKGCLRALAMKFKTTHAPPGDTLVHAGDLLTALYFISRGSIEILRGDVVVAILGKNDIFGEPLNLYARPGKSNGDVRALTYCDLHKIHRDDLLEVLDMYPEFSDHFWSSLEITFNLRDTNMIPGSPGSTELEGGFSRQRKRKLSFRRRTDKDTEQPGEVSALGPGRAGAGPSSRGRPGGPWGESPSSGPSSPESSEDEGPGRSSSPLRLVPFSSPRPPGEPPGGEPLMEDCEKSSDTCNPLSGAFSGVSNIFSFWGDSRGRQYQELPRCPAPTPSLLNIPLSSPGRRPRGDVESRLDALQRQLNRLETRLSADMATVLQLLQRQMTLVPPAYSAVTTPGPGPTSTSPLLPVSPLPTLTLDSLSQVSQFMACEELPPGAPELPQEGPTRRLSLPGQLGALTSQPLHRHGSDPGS
Protocol: (§1) Electrophysiological recordings (Apconix) were performed using a Chinese Hamster Ovary cell line stably expressing full length hERG or hNaV1.5, or HEK293 cells stably expressing full length hCaV1.2. Single cell currents were measured in whole-cell configuration at 21-23°C using a Patchliner (Nanion Technologies). The internal solution for hERG contained (mM): 120 KF, 20 KCl, 10EGTA, 10 HEPES (pH 7.3). The internal solution for hNaV1.5 and CaV1.2 contained (mM): 140 CsF, 1 EGTA, 10 NaCl, 10 HEPES (pH 7.3). […] Late Na^+ currents were activated with 50 μM veratridine. Cells were clamped at a holding potential of −80 mV before a depolarising step appropriate for each channel. Currents measured from the step were referenced to the holding current. Compounds were then incubated for 2-3 min prior to a second measurement using an identical pulse train.

[5] = target: T2, hCaV1.2 (Homo sapiens, UniProt Q13936); test: as above; format: cell-based
T2 construct: HEK293 cells stably expressing full length hCaV1.2; host or cells: HEK293
T2 sequence (Q13936 whole entry): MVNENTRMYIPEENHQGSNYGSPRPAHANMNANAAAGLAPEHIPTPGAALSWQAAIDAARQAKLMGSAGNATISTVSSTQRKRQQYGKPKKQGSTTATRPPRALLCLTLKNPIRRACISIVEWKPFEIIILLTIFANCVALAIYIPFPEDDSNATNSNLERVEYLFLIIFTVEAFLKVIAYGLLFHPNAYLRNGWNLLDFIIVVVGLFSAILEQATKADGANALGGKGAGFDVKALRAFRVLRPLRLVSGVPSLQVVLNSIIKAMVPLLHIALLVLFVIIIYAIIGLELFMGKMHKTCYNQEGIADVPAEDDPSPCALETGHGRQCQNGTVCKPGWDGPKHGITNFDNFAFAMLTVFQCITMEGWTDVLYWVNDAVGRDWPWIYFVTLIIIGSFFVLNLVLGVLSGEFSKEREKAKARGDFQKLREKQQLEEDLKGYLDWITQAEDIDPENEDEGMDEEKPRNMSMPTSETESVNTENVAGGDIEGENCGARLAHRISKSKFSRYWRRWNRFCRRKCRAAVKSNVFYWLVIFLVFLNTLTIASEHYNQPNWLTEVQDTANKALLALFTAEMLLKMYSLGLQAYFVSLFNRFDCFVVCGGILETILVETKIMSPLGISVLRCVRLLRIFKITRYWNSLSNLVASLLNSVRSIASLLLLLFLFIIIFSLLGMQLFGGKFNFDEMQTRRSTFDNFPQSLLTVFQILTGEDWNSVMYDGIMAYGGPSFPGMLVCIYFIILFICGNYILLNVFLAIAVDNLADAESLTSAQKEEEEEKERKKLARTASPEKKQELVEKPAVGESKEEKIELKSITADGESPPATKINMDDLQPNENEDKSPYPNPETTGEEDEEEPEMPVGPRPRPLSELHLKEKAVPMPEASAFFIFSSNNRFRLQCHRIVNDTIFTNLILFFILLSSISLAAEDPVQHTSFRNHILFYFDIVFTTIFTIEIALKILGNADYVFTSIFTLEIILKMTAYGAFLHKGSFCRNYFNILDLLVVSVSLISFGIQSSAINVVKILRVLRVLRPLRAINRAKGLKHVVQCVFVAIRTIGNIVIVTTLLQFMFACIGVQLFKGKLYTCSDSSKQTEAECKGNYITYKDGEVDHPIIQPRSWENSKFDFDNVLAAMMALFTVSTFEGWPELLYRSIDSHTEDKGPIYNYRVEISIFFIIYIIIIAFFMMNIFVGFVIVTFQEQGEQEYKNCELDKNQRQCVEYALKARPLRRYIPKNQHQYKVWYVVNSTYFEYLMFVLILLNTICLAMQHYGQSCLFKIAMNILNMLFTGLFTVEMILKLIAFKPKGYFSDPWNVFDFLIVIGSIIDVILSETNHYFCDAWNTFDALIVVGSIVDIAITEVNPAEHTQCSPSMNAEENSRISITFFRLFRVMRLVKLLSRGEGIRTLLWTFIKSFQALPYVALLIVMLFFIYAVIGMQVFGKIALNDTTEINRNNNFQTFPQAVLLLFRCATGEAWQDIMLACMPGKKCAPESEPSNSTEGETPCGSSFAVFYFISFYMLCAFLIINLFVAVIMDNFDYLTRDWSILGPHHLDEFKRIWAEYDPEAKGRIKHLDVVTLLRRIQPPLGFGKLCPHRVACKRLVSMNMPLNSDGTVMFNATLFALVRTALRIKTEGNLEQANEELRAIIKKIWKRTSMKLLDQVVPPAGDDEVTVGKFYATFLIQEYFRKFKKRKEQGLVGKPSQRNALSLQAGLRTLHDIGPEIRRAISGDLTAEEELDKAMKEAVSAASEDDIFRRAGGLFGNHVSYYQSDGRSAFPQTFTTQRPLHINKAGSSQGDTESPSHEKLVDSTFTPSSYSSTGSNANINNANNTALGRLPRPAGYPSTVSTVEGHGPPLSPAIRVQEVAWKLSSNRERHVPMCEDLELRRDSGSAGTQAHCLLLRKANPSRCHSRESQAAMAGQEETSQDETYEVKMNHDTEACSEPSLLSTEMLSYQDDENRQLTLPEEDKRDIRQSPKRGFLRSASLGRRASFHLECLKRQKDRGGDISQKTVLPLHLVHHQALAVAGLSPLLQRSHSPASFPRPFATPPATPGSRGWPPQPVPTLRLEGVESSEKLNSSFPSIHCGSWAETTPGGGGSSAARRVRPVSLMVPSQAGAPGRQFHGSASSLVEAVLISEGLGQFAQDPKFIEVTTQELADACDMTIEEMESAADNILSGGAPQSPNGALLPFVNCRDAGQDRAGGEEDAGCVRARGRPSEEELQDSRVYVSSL
T2 sequence (Q08289 whole entry partner): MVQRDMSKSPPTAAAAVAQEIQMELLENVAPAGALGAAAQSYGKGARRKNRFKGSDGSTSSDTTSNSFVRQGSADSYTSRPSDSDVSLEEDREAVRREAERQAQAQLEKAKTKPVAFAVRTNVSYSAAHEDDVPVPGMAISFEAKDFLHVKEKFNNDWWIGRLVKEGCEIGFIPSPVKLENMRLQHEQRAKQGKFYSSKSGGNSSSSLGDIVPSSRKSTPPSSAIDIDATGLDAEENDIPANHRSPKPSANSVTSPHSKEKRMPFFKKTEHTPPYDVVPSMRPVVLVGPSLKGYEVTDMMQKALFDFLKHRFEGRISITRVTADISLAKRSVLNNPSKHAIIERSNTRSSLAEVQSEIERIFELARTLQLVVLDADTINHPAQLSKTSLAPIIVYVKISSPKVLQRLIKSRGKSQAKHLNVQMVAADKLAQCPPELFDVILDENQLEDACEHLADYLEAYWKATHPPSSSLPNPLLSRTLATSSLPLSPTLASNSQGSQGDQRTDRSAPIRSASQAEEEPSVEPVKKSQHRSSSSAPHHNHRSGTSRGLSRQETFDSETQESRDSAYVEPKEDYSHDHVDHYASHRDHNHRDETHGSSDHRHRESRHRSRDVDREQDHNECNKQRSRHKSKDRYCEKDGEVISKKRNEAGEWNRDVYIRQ
T2 sequence (P54289 25-956 partner limits assumed): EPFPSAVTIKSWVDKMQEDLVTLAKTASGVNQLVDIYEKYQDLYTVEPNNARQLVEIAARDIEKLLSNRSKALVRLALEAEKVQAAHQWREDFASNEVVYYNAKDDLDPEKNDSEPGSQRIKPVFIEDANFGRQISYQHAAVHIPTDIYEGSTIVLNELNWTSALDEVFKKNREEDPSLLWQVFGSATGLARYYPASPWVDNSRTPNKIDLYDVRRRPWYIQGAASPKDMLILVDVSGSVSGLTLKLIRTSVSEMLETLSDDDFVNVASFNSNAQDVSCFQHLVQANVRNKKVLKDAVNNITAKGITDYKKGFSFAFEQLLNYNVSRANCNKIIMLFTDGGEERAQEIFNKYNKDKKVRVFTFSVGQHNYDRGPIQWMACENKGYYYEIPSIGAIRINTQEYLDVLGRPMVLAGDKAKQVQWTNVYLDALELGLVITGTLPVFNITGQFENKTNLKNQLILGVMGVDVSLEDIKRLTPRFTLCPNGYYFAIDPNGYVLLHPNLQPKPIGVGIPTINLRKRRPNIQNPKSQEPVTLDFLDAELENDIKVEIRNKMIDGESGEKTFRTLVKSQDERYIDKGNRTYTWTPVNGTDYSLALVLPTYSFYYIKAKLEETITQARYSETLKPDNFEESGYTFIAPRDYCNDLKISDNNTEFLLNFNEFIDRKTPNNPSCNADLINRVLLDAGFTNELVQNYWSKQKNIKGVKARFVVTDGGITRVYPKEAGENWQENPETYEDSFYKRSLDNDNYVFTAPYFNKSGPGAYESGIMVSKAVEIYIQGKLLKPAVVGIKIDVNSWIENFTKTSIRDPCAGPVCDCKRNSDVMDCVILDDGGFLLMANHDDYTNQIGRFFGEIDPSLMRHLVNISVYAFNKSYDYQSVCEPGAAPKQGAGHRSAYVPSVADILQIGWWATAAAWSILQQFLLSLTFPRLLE
T2 sequence (P54289 957-1103 partner limits assumed): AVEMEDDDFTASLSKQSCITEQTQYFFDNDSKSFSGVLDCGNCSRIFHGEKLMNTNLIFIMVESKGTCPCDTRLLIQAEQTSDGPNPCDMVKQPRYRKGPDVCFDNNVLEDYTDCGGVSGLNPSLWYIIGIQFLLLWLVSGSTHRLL
Protocol: as §1

[6] = target: T3, hNaV1.5 (Homo sapiens, UniProt Q14524); test: as above; format: cell-based
T3 construct: stably expressing full length hERG or hNaV1.5; host or cells: Chinese Hamster Ovary cell line
Protocol: as §1

[7] = test system: vCor.4U hiPSC-CMs; test: Calcium transients (FLIPR Tetra, EarlyTox Cardiotoxicity dye); format: cell-based, human
Protocol: Calcium transients in hiPSC-CMs were assessed using FLIPR Tetra instrumentation and Early Tox Cardiotoxicity kits (Molecular Devices). vCor.4U cells were subjected to graded concentrations of menadione and the MAP4K4 inhibitors as described for the viability assays. Compound concentrations and time course are denoted in the figure and figure legend. Vehicle controls were used throughout. Cells were incubated for 2-3 hr at 37°C in 5% CO2, using 3 μL well^-1 of EarlyTox Cardiotoxicity Kit concentrate as the fluorescent calcium indicator dye. Plates were then removed from the incubator and allowed to reach room temperature. Intracellular calcium oscillations were monitored using a FLIPR Tetra system with excitation LED bank 470-495 nm and emission filter set 515-575 nm (Molecular Devices). Fluorescence intensity signals were acquired for 600 reads at 1.2 ms intervals. Beat frequency, median peak height, median peak width and total peak area were calculated and compared with the baseline control and with menadione alone. Protection of calcium cycling by DMX-4804 was confirmed in 3 independent experiments with overlapping conditions, and results are shown for a full dose-response study, analyzing 4 wells for each point.

For COCCOc1ccc(-c2cn(-c3ccccc3)c3nc[nH]c(=O)c23)cc1 [DMX-5804, 5-[4-(2-methoxy-ethoxy)-phenyl]-7-phenyl-3,7-dihydro-pyrrolo[2,3-d]pyrimidin-4-one], the “glutathione (GSH)-trapping” value [1] was “no off-target effect”, the “Cerep Safety 44 panel” value [2] was “no off-target effect” and the “suppression of cardiomyocyte apoptosis in adjacent jeopardized myocardium” value [3] was 52%. For the same molecule, the “suppression of cardiomyocyte apoptosis within the infarct” value [3] was 39%, the off-target effect ([4]; cloned human hERG) was “no off-target effect” and the IC50 ([4]; hERG, CHO cells, 4-parameter logistic fit) was greater than 30 µM. For the same molecule, the off-target effect ([5]; cloned human hCaV1.2) was “no off-target effect”, the IC50 ([5]; hCaV1.2, HEK cells, 4-parameter logistic fit) was greater than 30 µM and the off-target effect ([6]; cloned human hNaV1.5) was “no off-target effect”. For the same molecule, the IC50 ([6]; hNaV1.5, CHO cells, 4-parameter logistic fit) was greater than 30 µM, the EC50 ([7]; Homo sapiens, calcium cycling, menadione, vCor.4U, read-out: concentration preserving ∼50% of peak area and peak height) was 0.5 to 2 µM and the “duration for which protection of calcium cycling was maintained” value ([7]; menadione present throughout) was “up to 96 h”. The “spontaneous calcium cycling after hypoxia-reoxygenation” value ([7]; vCor.4U, 8 hr after hypoxia-reoxygenation, 10 μM) was “protection was conferred” and the “effect on baseline calcium cycling” value ([7]; vCor.4U, no menadione) was “no effect”.
